Reference: patent US20230098637A1, “PROGNOSTIC PATHWAYS FOR HIGH RISK SEPSIS PATIENTS” (InnoSIGN B.V., priority 2020, published 2023)
Entries after “also recorded” stand apart in the source; their conditions may differ.

Experiments:
Type in all cases: cell-based
[1] = tested on: AR cellular signaling pathway; assay: AR inhibitor experiment in LPS-stimulated monocytes (THP1), AR pathway activity; conditions: THP1 monocytes cultured 24 hours with or without LPS, then with or without DHT
Procedure: (§1) FIG. 35 Schematic overview of AR inhibitor experiment. Depicts the experimental setup to determine if AR inhibitors can be used to mitigate the effect of LPS on monocytes (THP1 cells). In brief, monocyte cells (THP1) are cultured for 24 hours with or without LPS, after which the medium is changed and both conditions are subsequently cultured with or without DHT. Both LPS and DHT are anticipated to activate the AR cellular signaling pathway. In a parallel experiment, THP1 cells are first cultured for 24 hours with LPS, after which the medium is changed and the cells are cultured with one of ARCC-4, ARD-266, A-458 and bicalutamide.
as §1, with “describes” for “Schematic overview of AR inhibitor experiment. Depicts”, “set-up used.” for “setup to determine if AR inhibitors can be used to mitigate the effect of LPS on monocytes (THP1 cells).”
(§2) All experimental conditions were subjected to cellular signaling pathways analysis.

[2] = tested on: ER cellular signaling pathway; assay: AR inhibitor experiment in LPS-stimulated monocytes (THP1), ER pathway activity; conditions: THP1 monocytes cultured 24 hours with or without LPS, then with or without DHT
Procedure: as §1
as §1, with “describes” for “Schematic overview of AR inhibitor experiment. Depicts”, “set-up used.” for “setup to determine if AR inhibitors can be used to mitigate the effect of LPS on monocytes (THP1 cells).”
as §2

[3] = tested on: HH (Hedgehog) cellular signaling pathway; assay: AR inhibitor experiment in LPS-stimulated monocytes (THP1), HH pathway activity; conditions: THP1 monocytes cultured 24 hours with or without LPS, then with or without DHT
Procedure: as §1
as §1, with “describes” for “Schematic overview of AR inhibitor experiment. Depicts”, “set-up used.” for “setup to determine if AR inhibitors can be used to mitigate the effect of LPS on monocytes (THP1 cells).”
as §2

[4] = tested on: TGFbeta cellular signaling pathway; assay: AR inhibitor experiment in LPS-stimulated monocytes (THP1), TGFbeta pathway activity; conditions: THP1 monocytes cultured 24 hours with or without LPS, then with or without DHT
Procedure: as §1
as §1, with “describes” for “Schematic overview of AR inhibitor experiment. Depicts”, “set-up used.” for “setup to determine if AR inhibitors can be used to mitigate the effect of LPS on monocytes (THP1 cells).”
as §2

AR pathway = assay: LPS stimulation of THP-1 cells, AR pathway activity (qPCR OncoSignal); conditions: LPS from E. coli 10, 50, 100 ng/ml, 24 hours, vs control
Procedure: (§3) To study the inflammation process we stimulated the monocytic THP-1 cells (ATCC® TIB-202™) using 3 different concentrations of LPS originated from E. coli ([…], 10 ng/ml, 50 ng/ml and 100 ng/ml) into culture medium (DMEM, supplemented with 10% FBS, 1% glutamax and 1% pen strep at 37° C. 5% CO2.) of THP-1 for 24 hours. After stimulation cells were harvested and RNA was extracted using the RNeasy mini kit (Qiagen, 74104). qPCR was performed using the Philips Research OncoSignal platform. […] The activation of the AR and TGFBeta pathways was also seen in sepsis samples confirms the role of these pathways in inflammation.

FOXO pathway = assay: LPS stimulation of THP-1 cells, FOXO pathway activity; conditions: LPS from E. coli 10, 50, 100 ng/ml, 24 hours, vs control
Procedure: as §3

TGFBeta pathway = assay: LPS stimulation of THP-1 cells, TGFBeta pathway activity; conditions: LPS from E. coli 10, 50, 100 ng/ml, 24 hours, vs control
Procedure: as §3

WNT pathway = assay: LPS stimulation of THP-1 cells, WNT pathway activity; conditions: LPS from E. coli 10, 50, 100 ng/ml, 24 hours, vs control
Procedure: as §3

Compound: C[C@]12CCC(=O)C[C@@H]1CC[C@@H]1[C@@H]2CC[C@]2(C)[C@@H](O)CC[C@@H]12 [DHT]
- AR cellular signaling pathway activity [1]: increase
- ER cellular signaling pathway activity [2]: not substantially affected
- HH cellular signaling pathway activity [3]: not substantially affected
- TGFbeta cellular signaling pathway activity [4]: did not increase

Compound: lipopolysaccharide [LPS]
- AR pathway activity (AR pathway): increased
- FOXO pathway activity (FOXO pathway): increased
- TGFBeta pathway activity (TGFBeta pathway): increased
- WNT pathway activity (WNT pathway): increased
- AR cellular signaling pathway activity [1]: able to stimulate; also recorded: increase
- ER cellular signaling pathway activity [2]: not substantially affected
- HH cellular signaling pathway activity [3]: not substantially affected
- TGFbeta cellular signaling pathway activity [4]: increased
